Ten compounds from patent US20230066011A1, “PYRROLOPYRIMIDINE DERIVATIVE, AND PHARMACEUTICAL COMPOSITION FOR PREVENTING OR TREATING PROTEIN KINASE-RELATED DISEASE COMPRISING SAME AS ACTIVE INGREDIENT” (VORONOI CO., LTD., priority 2019, published 2023) can be followed below.

The target in one assay is T1, DYRK1A (Homo sapiens, UniProt Q13627).
T1 construct: purchased DiscoverX Corp. (ScanMAX Kinase analysis panel, service)
As to the kind of experiment: ScanMAX Kinase analysis panel, DYRK1A. The format is binding. As to conditions: 1 μM in DMSO; <35% considered inhibitory; read-out: percent control (% control), DYRK1A. The method, then: (§1) Specifically, the enzyme (kinase) selectivity of Example compounds 238, 361, 411, 157, 161, 228, and 158 selected from the Example compounds of the present invention was determined by commissioning DiscoverX Corp., and an experiment was performed using a ScanMAX™ Kinase analysis panel. In this case, a concentration of the drug with which the enzymes were treated was 1 μM in DMSO, and the percent control (% control) was defined in the same manner as in the following Expression 1.
(§2) (Example Compound−Positive Control)/(Negative Control−Positive Control)×100 [Expression 1]
(§3) wherein the positive control represents a compound having a percent control of 0%, and the negative control represents DMSO having a percent control of 100%. For the enzyme selectivity of the present invention, it was considered that the compound has an inhibitory activity on each of the enzymes when the percent control for the corresponding enzyme was <35% (i. e., less than 35%).

Another assay addresses T2, PYK2 (Homo sapiens, UniProt Q14289).
T2 construct: purchased DiscoverX Corp. (commissioned ScanMAX panel service)
As to the kind of experiment: ScanMAX Kinase analysis panel, PYK2. The format is binding. As to conditions: 1 μM in DMSO; <35% considered inhibitory; read-out: percent control (% control), PYK2. The method, then: as §1, §2, §3

Another assay has as its target T3, CLK4 (Homo sapiens, UniProt Q9HAZ1).
T3 construct: purchased DiscoverX Corp. (ScanMAX Kinase analysis panel, service)
As to the kind of experiment: ScanMAX Kinase analysis panel, CLK4. It is filed as binding. The following applies: 1 μM in DMSO; <35% considered inhibitory; read-out: percent control (% control), CLK4. On the procedure: as §1, §2, §3

The target of another assay is LRRK2 (G2019S) (Homo sapiens, UniProt Q5S007, G2019S). As to the kind of experiment: ScanMAX Kinase analysis panel, LRRK2 (G2019S). Further details: purchased DiscoverX Corp. (ScanMAX Kinase analysis panel, service). As to conditions: 1 μM in DMSO; <35% considered inhibitory; read-out: percent control (% control), LRRK2 (G2019S). The format is binding. The method, then: as §1, §2, §3
Chain of LRRK2 (G2019S) (Q5S007 whole entry G2019S): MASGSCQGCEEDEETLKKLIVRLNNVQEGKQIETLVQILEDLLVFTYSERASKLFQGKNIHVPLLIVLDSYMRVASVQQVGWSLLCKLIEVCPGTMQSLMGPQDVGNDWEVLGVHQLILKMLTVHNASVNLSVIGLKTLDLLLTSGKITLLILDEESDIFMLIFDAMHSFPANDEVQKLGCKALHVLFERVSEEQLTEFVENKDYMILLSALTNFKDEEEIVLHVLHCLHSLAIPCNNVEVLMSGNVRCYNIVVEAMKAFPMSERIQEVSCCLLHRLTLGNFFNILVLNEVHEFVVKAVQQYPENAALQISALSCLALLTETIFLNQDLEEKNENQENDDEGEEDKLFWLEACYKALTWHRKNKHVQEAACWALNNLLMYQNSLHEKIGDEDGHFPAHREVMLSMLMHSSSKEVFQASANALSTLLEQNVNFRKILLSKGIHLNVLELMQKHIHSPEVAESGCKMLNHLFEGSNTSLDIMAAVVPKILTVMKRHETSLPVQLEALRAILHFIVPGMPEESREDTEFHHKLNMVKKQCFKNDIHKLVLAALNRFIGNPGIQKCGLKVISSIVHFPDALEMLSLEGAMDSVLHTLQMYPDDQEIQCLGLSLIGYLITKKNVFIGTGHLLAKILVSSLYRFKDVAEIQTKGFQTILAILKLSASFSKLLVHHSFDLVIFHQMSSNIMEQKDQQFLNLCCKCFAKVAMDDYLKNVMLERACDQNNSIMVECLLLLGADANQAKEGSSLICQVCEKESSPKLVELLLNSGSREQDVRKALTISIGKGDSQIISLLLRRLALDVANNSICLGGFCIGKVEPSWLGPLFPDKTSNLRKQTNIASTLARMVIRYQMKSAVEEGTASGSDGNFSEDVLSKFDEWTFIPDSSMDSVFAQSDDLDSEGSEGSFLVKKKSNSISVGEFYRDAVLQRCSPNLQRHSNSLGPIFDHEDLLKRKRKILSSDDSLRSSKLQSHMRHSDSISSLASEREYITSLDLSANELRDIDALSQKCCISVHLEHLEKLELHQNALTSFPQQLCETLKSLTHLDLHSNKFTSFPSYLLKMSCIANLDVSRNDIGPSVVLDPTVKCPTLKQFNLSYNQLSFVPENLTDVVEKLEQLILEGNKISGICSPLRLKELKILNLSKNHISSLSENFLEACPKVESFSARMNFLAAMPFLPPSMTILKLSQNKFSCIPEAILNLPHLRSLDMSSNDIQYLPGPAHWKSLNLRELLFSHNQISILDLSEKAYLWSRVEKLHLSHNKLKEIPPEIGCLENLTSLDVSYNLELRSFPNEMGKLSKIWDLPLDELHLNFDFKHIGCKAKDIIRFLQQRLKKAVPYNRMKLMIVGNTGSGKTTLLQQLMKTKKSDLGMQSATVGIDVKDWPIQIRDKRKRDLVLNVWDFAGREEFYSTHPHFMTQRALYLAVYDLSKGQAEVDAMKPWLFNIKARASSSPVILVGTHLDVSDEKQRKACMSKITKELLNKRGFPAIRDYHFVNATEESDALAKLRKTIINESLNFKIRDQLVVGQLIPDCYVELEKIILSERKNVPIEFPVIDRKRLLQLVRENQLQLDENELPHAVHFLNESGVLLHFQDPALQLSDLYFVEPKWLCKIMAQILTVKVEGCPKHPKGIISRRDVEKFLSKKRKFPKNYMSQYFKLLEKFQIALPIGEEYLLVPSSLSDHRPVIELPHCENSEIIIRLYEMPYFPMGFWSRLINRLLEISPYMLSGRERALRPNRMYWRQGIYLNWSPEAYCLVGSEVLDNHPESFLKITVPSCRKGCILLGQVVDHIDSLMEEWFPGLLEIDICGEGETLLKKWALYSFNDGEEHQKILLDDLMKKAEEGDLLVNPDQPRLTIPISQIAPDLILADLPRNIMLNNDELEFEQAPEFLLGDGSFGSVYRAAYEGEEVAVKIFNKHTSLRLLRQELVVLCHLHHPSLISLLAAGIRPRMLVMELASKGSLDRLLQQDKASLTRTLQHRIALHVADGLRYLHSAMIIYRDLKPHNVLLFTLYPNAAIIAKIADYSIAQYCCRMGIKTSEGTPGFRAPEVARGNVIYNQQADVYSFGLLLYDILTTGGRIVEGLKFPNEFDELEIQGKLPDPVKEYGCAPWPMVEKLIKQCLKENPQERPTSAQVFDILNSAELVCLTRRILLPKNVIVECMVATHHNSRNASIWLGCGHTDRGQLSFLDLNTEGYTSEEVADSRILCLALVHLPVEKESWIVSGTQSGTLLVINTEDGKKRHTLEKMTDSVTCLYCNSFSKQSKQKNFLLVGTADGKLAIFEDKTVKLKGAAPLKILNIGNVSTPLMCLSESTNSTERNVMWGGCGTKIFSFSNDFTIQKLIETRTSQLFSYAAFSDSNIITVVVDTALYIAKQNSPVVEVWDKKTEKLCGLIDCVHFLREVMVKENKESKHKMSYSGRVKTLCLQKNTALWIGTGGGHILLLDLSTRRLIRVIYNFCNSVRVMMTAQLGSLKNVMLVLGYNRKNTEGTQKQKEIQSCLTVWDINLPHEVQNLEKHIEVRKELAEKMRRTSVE

Another assay addresses T4, DYRK1B (Homo sapiens, UniProt Q9Y463).
T4 construct: purchased DiscoverX Corp. (ScanMAX Kinase analysis panel, service)
As to the kind of experiment: ScanMAX Kinase analysis panel, DYRK1B. The format is binding. The following applies: 1 μM in DMSO; <35% considered inhibitory; read-out: percent control (% control), DYRK1B. The method, then: as §1, §2, §3

The target in the next assay is T5, TTK (Homo sapiens, UniProt P33981).
T5 sequence (P33981 1-857): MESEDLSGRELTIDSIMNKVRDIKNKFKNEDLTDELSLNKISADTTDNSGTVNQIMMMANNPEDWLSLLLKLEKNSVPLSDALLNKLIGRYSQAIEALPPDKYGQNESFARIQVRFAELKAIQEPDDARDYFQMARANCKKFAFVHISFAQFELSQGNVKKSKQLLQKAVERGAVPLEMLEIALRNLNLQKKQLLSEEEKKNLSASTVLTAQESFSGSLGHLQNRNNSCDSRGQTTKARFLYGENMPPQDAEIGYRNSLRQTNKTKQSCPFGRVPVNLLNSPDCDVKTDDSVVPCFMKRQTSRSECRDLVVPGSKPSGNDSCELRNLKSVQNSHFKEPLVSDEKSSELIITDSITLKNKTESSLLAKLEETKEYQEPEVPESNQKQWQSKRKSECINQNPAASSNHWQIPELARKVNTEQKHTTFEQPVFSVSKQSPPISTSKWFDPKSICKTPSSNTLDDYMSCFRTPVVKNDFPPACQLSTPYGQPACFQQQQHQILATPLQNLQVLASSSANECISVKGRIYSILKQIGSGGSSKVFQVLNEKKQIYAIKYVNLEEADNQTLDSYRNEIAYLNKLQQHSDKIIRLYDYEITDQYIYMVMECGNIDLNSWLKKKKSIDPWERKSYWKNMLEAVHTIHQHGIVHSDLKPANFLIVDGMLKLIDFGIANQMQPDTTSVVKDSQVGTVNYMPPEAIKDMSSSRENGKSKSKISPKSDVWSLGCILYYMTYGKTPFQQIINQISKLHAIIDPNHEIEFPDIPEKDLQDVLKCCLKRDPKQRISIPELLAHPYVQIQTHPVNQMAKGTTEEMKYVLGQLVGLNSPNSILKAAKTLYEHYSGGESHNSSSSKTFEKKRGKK
As to the kind of experiment: ScanMAX Kinase analysis panel, TTK. The format is binding. On the set-up: purchased DiscoverX Corp. (commissioned ScanMAX panel service). As to conditions: 1 μM in DMSO; <35% considered inhibitory; read-out: percent control (% control), TTK. On the procedure:
as §1, §2, §3

The next assay has as its target T6, CLK3 (Homo sapiens, UniProt P49761).
T6 construct: purchased DiscoverX Corp. (ScanMAX Kinase analysis panel, service)
As to the kind of experiment: ScanMAX Kinase analysis panel, CLK3. The format is binding. As to conditions: 1 μM in DMSO; <35% considered inhibitory; read-out: percent control (% control), CLK3. On the procedure:
as §1, §2, §3

A further assay has as its system THP-1 cells. Kind of assay: THP-1 GI50 (Table 4, cytokine secretion experiment). As to conditions: Homo sapiens. It is filed as cell-based.
The test system of a further assay is SHP-77. As to the kind of experiment: Inhibition of proliferation of SHP-77 cancer cells (Cell Titer-Glo). The following applies: Homo sapiens, SHP77, 72 hours. It is filed as cell-based. Put shortly: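 Luminescence from Cell Titer-Glo (10 min, room temperature) gave GI50 after 72 h compound treatment. Final compound levels spanned 0.000169–10.000000 μM over 11 points, 3-fold steps; 2,000 cells/well grown in DMEM or RPMI.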

A further assay concerns the target LRRK2 (Homo sapiens, UniProt Q5S007). As to the kind of experiment: Kinase HotSpot service (Reaction Biology Corporation), LRRK2. It is filed as biochemical. On the set-up: purchased DiscoverX Corp. (ScanMAX Kinase analysis panel, service). As to conditions: ATP 10 uM, read-out: LRRK2 IC50 (values indicated by *). On the procedure: The inhibitory activities of the compounds were measured at a 3-fold concentration gradient starting from a maximum compound concentration of […], and the values measured using the Kinase HotSpot service (Reaction Biology Corporation) are indicated by an asterisk (*).
All the experimental methods were performed as provided by the Kinase HotSpot Customer Protocol (http://www.reactionbiology.com//Kinase_Assay_Protocol).

T3 sequence (Q9HAZ1 whole entry): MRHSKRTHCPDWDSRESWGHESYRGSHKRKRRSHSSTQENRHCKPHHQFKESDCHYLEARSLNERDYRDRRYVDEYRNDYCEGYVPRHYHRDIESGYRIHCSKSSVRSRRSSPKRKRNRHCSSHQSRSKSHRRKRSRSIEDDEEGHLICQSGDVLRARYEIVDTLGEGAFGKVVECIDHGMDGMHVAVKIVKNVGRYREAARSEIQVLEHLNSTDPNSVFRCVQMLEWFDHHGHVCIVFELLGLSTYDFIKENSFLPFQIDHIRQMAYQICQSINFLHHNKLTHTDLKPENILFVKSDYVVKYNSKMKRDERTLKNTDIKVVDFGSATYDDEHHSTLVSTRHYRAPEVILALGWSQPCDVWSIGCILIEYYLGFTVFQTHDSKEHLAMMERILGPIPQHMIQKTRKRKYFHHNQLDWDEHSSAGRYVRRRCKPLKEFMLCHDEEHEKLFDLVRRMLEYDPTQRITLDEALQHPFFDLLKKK
T6 sequence (P49761 whole entry): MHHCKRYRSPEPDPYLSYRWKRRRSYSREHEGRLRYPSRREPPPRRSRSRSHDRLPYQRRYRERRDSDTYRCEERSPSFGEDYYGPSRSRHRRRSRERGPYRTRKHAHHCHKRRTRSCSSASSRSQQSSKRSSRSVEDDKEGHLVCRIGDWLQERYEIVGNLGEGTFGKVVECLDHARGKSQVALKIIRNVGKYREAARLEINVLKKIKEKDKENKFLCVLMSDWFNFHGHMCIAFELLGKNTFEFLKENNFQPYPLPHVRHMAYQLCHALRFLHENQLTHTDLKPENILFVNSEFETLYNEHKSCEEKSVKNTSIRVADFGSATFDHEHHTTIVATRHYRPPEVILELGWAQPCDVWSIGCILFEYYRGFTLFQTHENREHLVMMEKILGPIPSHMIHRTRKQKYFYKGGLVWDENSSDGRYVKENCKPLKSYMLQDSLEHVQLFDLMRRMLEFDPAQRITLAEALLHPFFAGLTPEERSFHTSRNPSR
T4 sequence (Q9Y463 whole entry): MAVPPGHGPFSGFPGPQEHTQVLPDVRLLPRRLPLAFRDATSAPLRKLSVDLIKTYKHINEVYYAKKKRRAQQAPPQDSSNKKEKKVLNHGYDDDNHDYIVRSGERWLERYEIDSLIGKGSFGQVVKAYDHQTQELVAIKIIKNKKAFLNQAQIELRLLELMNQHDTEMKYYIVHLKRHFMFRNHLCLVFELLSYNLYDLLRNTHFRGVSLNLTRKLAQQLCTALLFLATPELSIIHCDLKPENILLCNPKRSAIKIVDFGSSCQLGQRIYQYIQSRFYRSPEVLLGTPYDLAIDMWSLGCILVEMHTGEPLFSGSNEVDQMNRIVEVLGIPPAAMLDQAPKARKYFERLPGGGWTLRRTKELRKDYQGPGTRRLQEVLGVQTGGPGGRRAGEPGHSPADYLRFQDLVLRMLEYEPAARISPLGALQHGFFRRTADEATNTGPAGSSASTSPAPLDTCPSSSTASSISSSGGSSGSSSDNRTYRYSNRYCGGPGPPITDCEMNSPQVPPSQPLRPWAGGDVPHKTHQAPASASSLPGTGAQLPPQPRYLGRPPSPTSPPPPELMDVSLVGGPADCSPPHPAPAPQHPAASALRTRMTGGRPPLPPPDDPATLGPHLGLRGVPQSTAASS
Chain of LRRK2 (Q5S007 whole entry): as the sequence (Q5S007 whole entry G2019S) above, with S2019G counted along it

For the compound `O=C(c1ccc(Nc2nc(C3CC3)c3c(C(F)(F)F)c[nH]c3n2)c2c1OCCO2)N1CCC(N2CCOCC2)CC1` [Example 228, (8-((4-cyclopropyl-5-(trifluoromethyl)-7H-pyrrolo[2,3-d]pyrimidin-2-yl)amino)-2,3-dihydrobenzo[b][1,4]dioxin-5-yl)(4-morpholinopiperidin-1-yl)methanone], the remaining binding at 1 µM on DYRK1A is 0.5%; on PYK2, 22%; at CLK4 it was 0.05%; at LRRK2 (G2019S), 1.1%; on DYRK1B, 0%; at TTK, 2.9%. At CLK3, the remaining binding at 1 µM was 25%.

As a reminder, the GI50 is the concentration that inhibits growth by half. Read a high GI50 as less potent growth inhibition. As for `COCCNc1nc(Nc2ccc(C(=O)N3CCC(N4CCOCC4)CC3)c3c2OCC3)nc2[nH]cc(C#N)c12` [Example 359, 4-((2-methoxy-ethyl)ami-no)-2-((4-(4-morpholino-piperidine-1-carbonyl)-2,3-dihydro-benzofuran-7-yl)amino)-7H-pyrrolo[2,3-d]pyrimidine-5-carbonitrile], the 50% growth inhibitory concentration (GI50) in the assay with THP-1 cells amounted to 13600 nM.

On to `C=CCNc1nc(Nc2ccc(S(=O)(=O)N3CCC(N4CCOCC4)CC3)cc2OC)nc2[nH]cc(C#N)c12` [Example 361, 4-(allylamino)-2-((2-methoxy-4-((4-morpholino-piperidin-1-yl)sulfonyl)phenyl)amino)-7H-pyrrolo[2,3-d]pyrimidine-5-carbonitrile], for which the remaining binding at 1 µM at DYRK1A was determined as 2.6%; at PYK2 it was 2.2%; on CLK4 it was 2.8%; on LRRK2 (G2019S) it was 0%; on DYRK1B, 6.1%; on TTK, 2.4%. Also, on CLK3, the remaining binding at 1 µM worked out at 21%.

Consider `O=C(c1ccc(Nc2nc(NC3CCCC3)c3c(C(F)(F)F)c[nH]c3n2)c2c1OCCO2)N1CCN(C2COC2)CC1` [Example 414, (8-((4-(cyclopentyl-amino)-5-(trifluoromethyl)-7H-pyrrolo[2,3-d]pyrimidin-2-yl)amino)-2,3-dihydrobenzo[b] [1,4]dioxin-5-yl) (4-(oxetan-3-yl)piperazin-1-yl)methanone], for which, in the assay with THP-1 cells, the GI50 is 4160 nM.

With `CNc1nc(Nc2ccc(P3(=O)CCN(C4CC4)CC3)cc2OC)nc2[nH]cc(C(F)(F)F)c12` [Example 411, 1-cyclopropyl-4-(3-methoxy-4-((4-(methylamino)-5-(trifluoromethyl)-7H-pyrrolo[2,3-d]pyrimidin-2-yl)amino)phenyl)-1,4-azaphosphinane-4-oxide], the remaining binding at 1 µM at DYRK1A stood at 0.2%; on PYK2, 13%; on CLK4, 1.4%; on LRRK2 (G2019S), 1.3%; on DYRK1B, 4.5%; on TTK, 2.5%. Moreover, at CLK3, the remaining binding at 1 µM turned out to be 21%.

As to `CCCNc1nc(Nc2ccc(S(=O)(=O)N3CCC(N4CCOCC4)CC3)cc2OC)nc2[nH]cc(C(F)(F)F)c12` [Example 161, N^2-(2-methoxy-4-((4-morpholinopiperidin-1-yl)sulfonyl)phenyl)-N^4-propyl-5-(trifluoromethyl)-7H-pyrrolo[2,3-d]pyrimidine-2,4-diamine], the remaining binding at 1 µM was found to be 2% at DYRK1A; 1.3% at PYK2; 0.65% at CLK4; 0% at LRRK2 (G2019S); 0% at DYRK1B; 4.2% on TTK. In addition, the remaining binding at 1 µM at CLK3 worked out at 11%. In the assay with SHP-77, the 50% growth inhibitory concentration (GI50) is 301 to 1000 nM.

With `CCNc1nc(Nc2ccc(S(=O)(=O)N3CCC(N4CCOCC4)CC3)cc2OC)nc2[nH]cc(C(F)(F)F)c12` [Example 158, N^4-ethyl-N^2-(2-methoxy-4-((4-morpholinopiperidin-1-yl)sulfonyl)phenyl)-5-(trifluoromethyl)-7H-pyrrolo[2,3-d]pyrimidine-2,4-diamine 2,2,2-trifluoroacetate], the remaining binding at 1 µM at DYRK1A was found to be 0.75%; on PYK2 it was 3%; on CLK4, 0.3%; at LRRK2 (G2019S) it was 3.6%; on DYRK1B, 0.8%; at TTK, 2.6%. At CLK3, the remaining binding at 1 µM is 11%. In addition, in the assay with SHP-77, the concentration for 50% growth inhibition (GI50) fell in the range of 51 to 100 nM.

The term IC50 denotes the concentration at which inhibition is half-maximal. For the compound `CNc1nc(Nc2ccc(S(=O)(=O)N3CCC(N4CCOCC4)CC3)cc2OC)nc2[nH]cc(C(F)(F)F)c12` [Example 157, N^2-(2-methoxy-4-((4-morpholinopiperidin-1-yl)sulfonyl)phenyl)-N^4-methyl-5-(trifluoromethyl)-7H-pyrrolo[2,3-d]pyrimidine-2,4-diamine 2,2,2-trifluoroacetate], the remaining binding at 1 µM was determined as 0.05% at DYRK1A; 5.5% on PYK2; 0.55% on CLK4; 1.6% on LRRK2 (G2019S); 0% on DYRK1B; 4% at TTK. Also, the remaining binding at 1 µM on CLK3 is 3.7%. In the assay on SHP-77, the concentration for 50% growth inhibition (GI50) was in the range of 301 to 1000 nM. For the same compound, on LRRK2, the IC50 is below 100 nM.

For the compound `COc1cc(S(=O)(=O)N2CCC(N3C[C@H]4C[C@@H]3CO4)CC2)ccc1Nc1nc(C2CC2)c2c(C(F)(F)F)c[nH]c2n1` [Example 473, N-(4-((4-((1R,4R)-2-oxa-5-azabicyclo[2.2.1]heptan-5-yl)piperidin-1-yl)sulfonyl)-2-methoxyphenyl)-4-cyclopropyl-5-(trifluoromethyl)-7H-pyrrolo[2,3-d]pyrimidin-2-amine], at LRRK2, the IC50 was below 100 nM.

As for `CNc1nc(Nc2ccc(C(=O)N3CCC(N4CCOCC4)CC3)c3c2OCCO3)nc2[nH]cc(C(F)(F)F)c12` [Example 238, (8-((4-(methylamino)-5-(trifluoromethyl)-7H-pyrrolo[2,3-d]pyrimidin-2-yl)amino)-2,3-dihydrobenzo[b][1,4]dioxin-5-yl)(4-morpholinopiperidin-1-yl)methanone], the remaining binding at 1 µM at DYRK1A was found to be 0.25%; at PYK2, 5.2%; on CLK4, 3.6%; on LRRK2 (G2019S), 0.05%; at DYRK1B, 0%; on TTK, 2.9%. Moreover, the remaining binding at 1 µM at CLK3 stood at 7.8%.
